{"source": "patent US20240350402A1", "about": "“TOPICAL DRUG TREATMENT TO PREVENT OR REDUCE CORNEAL SCARRING” (The Cleveland Clinic Foundation, priority 2021, published 2024)", "key": {"[1]": {"system": "rabbit corneas after alkali burn injury", "assay": "Alkali burn model: slit lamp opacity area and intensity (ImageJ)", "format": "in vivo", "settings": "alkali burn 1N NaOH; topical six times per day, one month; 0.8 mg/ml losartan, 1% prednisolone acetate", "experimental": "All animal treatments and care were approved by the Institutional Animal Care and Use Committee (IACUC) at the Cleveland Clinic Foundation (Cleveland, OH, USA) and the Animal Care and Use Review Office of the Department of the Army (Fort Detrick, MD). All rabbits were treated in accordance with the tenets of the ARVO Statement for the Use of Animals in Ophthalmic and Vision Research. Sixteen 10- to 15-week-old female New Zealand White rabbits weighing 2.5 to 3.0 kg each were included in this example. […]\nAt one month after sodium hydroxide exposure and treatments, with the rabbits under ketamine-xylazine general anesthesia, the eyes were dilated with two drops of 1% tropicamide (Akom Co., Lake Forest, IL) for thirty minutes. […] For each study eye, the total area of opacity was determined by outlining the opacity with the freehand selection tool using ImageJ 1.53a analysis software calibrated to mm^2. The “raw internal density” in pixels for the opacified area in each cornea was also determined using ImageJ. […]"}, "[2]": {"system": "rabbit corneas after -9D PRK", "assay": "-9D PRK model: slit lamp central opacity (ImageJ)", "format": "in vivo", "settings": "topical 0.8 mg/ml losartan six times a day, one month", "experimental": "(§1) Animal procedures were approved by the Institutional Animal Care and Use Committee at the Cleveland Clinic Foundation and animals were treated in accordance with the tenets of the Association for Research in Vision and Ophthalmology Statement for the Use of Animals in Ophthalmic and Vision Research. Twelve female 12- to 15-week-old New Zealand white rabbits weighing 2.5 to 3 kg each were included. Starting 24 hours prior to surgery and continuing 5 days after PRK, all rabbits received 60 mL children's liquid acetaminophen (Johnson & Johnson, Ft. Washington, PA, USA) per 1 L of drinking water. One eye of each rabbit was randomly selected to have −9.0 D (on myopia scale) PRK and received 2 drops of topical 1% proparacaine hydrochloride (Alcon, Fort Worth, TX, USA) prior to the surgery. […]\nAt 1 month after PRK and treatment, each rabbit was placed under ketamine-xylazine general anesthesia and the eyes were dilated with two drops of 1% tropicamide (Akorn Co., Lake Forest, IL, USA) for 30 minutes. […] For each study cornea, the mean opacity in pixels in the central 3.5 mm of the PRK ablated zone was determined by using ImageJ 1.53a analysis software (National Institutes of Health, Bethesda, MD, USA). […]"}, "collagen type IV": {"system": "collagen type IV", "assay": "-9D PRK model: IHC stromal collagen type IV pixels (ImageJ)", "format": "in vivo, rabbit", "settings": "losartan-treated group, one month", "description": "No corticosteroids were administered in either group.\nCorneal Cryo-Fixation and Sectioning Rabbits were euthanized while under ketamine-xylazine general anesthesia with 100 mg/kg Beuthanasia (Shering-Plough, Kenilworth, NJ, USA) by intravenous injection followed by bilateral pneumothorax. The corneo-scleral rims were removed with sharp Westcott scissors (Fairfield, CT, USA) and 0.12 forceps (Storz, St Louis, MO, USA). […]"}, "[3]": {"system": "myofibroblast marker α-SMA", "assay": "-9D PRK model: IHC stromal α-SMA pixels (ImageJ)", "format": "in vivo, rabbit", "settings": "topical 0.8 mg/ml losartan six times a day, one month", "experimental": "as §1\nAll images were converted to 300 DPI 900 pixel width×672 pixel height images with Photoshop 22.1.1 (Adobe, San Jose, CA). The mean pixels of stromal α-SMA or stromal collagen type IV were determined in a 900-pixel wide×235-pixel high rectangle (for either α-SMA or collagen type IV quantitation) with ImageJ in three sections for each cornea using the image panels showing only the color of interest. […]"}}, "data": [{"smiles": "CCCCc1nc(Cl)c(CO)n1Cc1ccc(-c2ccccc2-c2nn[nH]n2)cc1", "note": "[losartan]", "values": [{"measurement": "total opacity intensity in pixels (ImageJ) vs BSS vehicle group", "setting": "[1]", "value": "significantly different"}, {"measurement": "mean pixels of opacity within the analyzed 3.5 mm diameter area (mean±SEM)", "setting": "[2]", "value": "77±3", "unit": "pixels"}, {"measurement": "collagen type IV localization (IHC)", "setting": "collagen type IV", "value": "localized primarily to the epithelial basement membrane"}, {"measurement": "total pixels of α-SMA staining within the analyzed rectangle (mean±SEM)", "setting": "[3]", "value": "120±60", "unit": "pixels"}]}]}
